Consider 15 compounds from ChEMBL document CHEMBL1126172, “Modeling of competitive phosphono amino acid NMDA receptor antagonists” (J Med Chem, 1992).

The pKi is the negative decadic logarithm of the Ki, by convention in mol/L. Read a high pKi as a low Ki.

Format in all cases: protein-complex assay
Experiment [1] addresses Glutamate NMDA receptor. The experiment is described as follows: Displacement of [3H]CPP or [3H]-CGS- 19755 from rat N-methyl-D-aspartate glutamate receptor. For orientation: Displacement assays read how much labelled ligand stays bound in the presence of the test substance.
Experiment [2] has as its target Glutamate NMDA receptor. Nature of the experiment: Compound was evaluated for its ability to displace [3H]-CGS- 19755 ligand from N-methyl-D-aspartate glutamate receptor.
Experiment [3] deals with Glutamate NMDA receptor. The experiment is described as follows: Compound was evaluated for its ability to displace [3H]CPP or [3H]-CGS- 19755 ligand from N-methyl-D-aspartate glutamate receptor.
Experiment [4] deals with Glutamate NMDA receptor. The experiment is described as follows: Compound was evaluated for its ability to displace [3H]CPP ligand from N-methyl-D-aspartate (NMDA) receptor.
Experiment [5] has as its target Glutamate NMDA receptor. Nature of the experiment: (§1) Compound was evaluated for its ability to displace [3H]CPP or [3H]-CGS- 19755 ligand from N-methyl-D-aspartate (NMDA) receptor.
Experiment [6] has as its target Glutamate NMDA receptor. Nature of the experiment: Compound was evaluated for its ability to displace [3H]-CPP ligand from N-methyl-D-aspartate (NMDA) receptor.
Experiment [7] has as its target Glutamate NMDA receptor. The description is as §1. This is another data set of the same source.
Experiment [8] deals with Glutamate NMDA receptor. The experiment is described as follows: Compound was evaluated for its ability to displace [3H]CPP ligand from N-methyl-D-aspartate glutamate receptor.

pKi: −log10 of the molar value.

`CC([C@@H]1CCN[C@H](C(=O)O)C1)P(=O)(O)O` (some centres not stated) had a negative-log Ki (pKi) on Glutamate NMDA receptor [1] below 6.00.

Compound `O=C(O)[C@@H]1C[C@H](CCCP(=O)(O)O)CCN1` had a pKi at Glutamate NMDA receptor [1] above 6.00.

Turning to `NC(CCCCCP(=O)(O)O)C(=O)O` (configuration not stated) [AP-7], the pKi was 6.04 at Glutamate NMDA receptor [2] and above 6.00 on Glutamate NMDA receptor [1].

As to `C[C@H]1C[C@@H](CP(=O)(O)O)C[C@@H](C(=O)O)N1`, the pKi at Glutamate NMDA receptor [1] was below 6.00.

Take `NC(CCCCP(=O)(O)O)C(=O)O` (configuration not stated): the pKi is below 6.00 at Glutamate NMDA receptor [3] and 7.38 at Glutamate NMDA receptor [4].

On Glutamate NMDA receptor [1], `C[C@@H]1CN[C@H](C(=O)O)C[C@@H]1CP(=O)(O)O` showed a pKi above 6.00.

On to `C[C@@H]1[C@H](CP(=O)(O)O)CCN[C@@H]1C(=O)O`, for which the negative logarithm of the Ki (pKi) on Glutamate NMDA receptor [1] is below 6.00.

On Glutamate NMDA receptor [1], `O=C(O)[C@H]1NCCC[C@H]1CCP(=O)(O)O` showed a negative-log Ki (pKi) below 6.00.

For `O=C(O)[C@@H]1C[C@H](C/C=C/P(=O)(O)O)CCN1`, the results for the pKi at Glutamate NMDA receptor [2] and on Glutamate NMDA receptor [1] were 7.14 and above 6.00, respectively.

Turning to `C/C(=C\C(N)C(=O)O)CP(=O)(O)O` (configuration not stated) [CGP-37849], the values for the pKi at Glutamate NMDA receptor [5] and at Glutamate NMDA receptor [6] were above 6.00 and 7.46, respectively.

For `O=C(O)[C@@H]1C[C@H](CP(=O)(O)O)CCN1` [SELFOTEL], the pKi at Glutamate NMDA receptor [5] is above 6.00; on Glutamate NMDA receptor [7], 6.89.

Compound `NC(CCc1ccccc1CP(=O)(O)O)C(=O)O` (configuration not stated) had a negative-log Ki (pKi) at Glutamate NMDA receptor [1] below 6.00.

Turning to `O=C(O)[C@@H]1C[C@H](/C=C/CP(=O)(O)O)CCN1`, the pKi at Glutamate NMDA receptor [2] is 7.85; at Glutamate NMDA receptor [1], above 6.00.

Take `CC(C)([C@@H]1CCN[C@H](C(=O)O)C1)P(=O)(O)O`: the pKi at Glutamate NMDA receptor [1] was below 6.00.

Take `NC(CCCP(=O)(O)O)C(=O)O` (configuration not stated): the pKi was 6.59 on Glutamate NMDA receptor [8] and above 6.00 on Glutamate NMDA receptor [1].
